# Measurements taken from patent publication US20060058320A1, “[1,2,4] Triazolo[1,5-c]pyrimidine derivatives” (KYOWA HAKKO KOGYO CO., LTD., priority 2002, published 2006).
# Structures can show the parent of a compound that is named as a salt. Where two headings read alike, the source gives them in different places.
# Tested on: CGS 21680-induced catalepsy
# Test: Activity on CGS 21680-induced catalepsy
# Format: in vivo, mice
# Conditions: for inhibition in vivo at 10 mg/kg: Mus musculus, po, read-out: Remission ratio (%); for Total score: total catalepsy score of 10 mice (maximum 50 points; 40 points or less = positive), one hour after administration; for Number of animals showing remission: cases with catalepsy score of 4 points or less in 10 cases
# Protocol: Parkinson's disease is a motor disorder based on degeneration and cell death of the nigrostriatal dopaminergic neurons. When CGS 21680 (adenosine A2A receptor agonist) is administered into the intracerebral ventricle, the inhibitory synaptic transmission of GABA in the medium sized spiny neurons in the corpus striatum is inhibited directly via the adenosine A2A receptor [Journal of Neuroscience, vol. 16, p. 605 (1996)]. Accordingly, it is concidered that the adenosine A2A receptor agonists positively regulate the output of the GABAergic neurons from the corpus striatum to the globus pallidus lateralis, and, as a result, catalepsy is induced by the administration of CGS 21680.
# The test was carried out using ten 5-week age male ddY mice (22-25 g in body weight, Japan SLC) per group. CGS 21680 (produced by RBI Co) was dissolved in physiological saline (produced by Otsuka Pharmaceutical Co., Ltd.), and 10 μg/20 μL of the solution was injected into mouse intracerebral ventricle. Each test compound was used by suspending it in distilled water containing 0.3% of polyoxylene (20) sorbitan monooleate (referred to as “Tween 80” hereinafter) (produced by Otsuka Pharmaceutical Co., Ltd.). The suspension containing each test compound or a solution containing no test Compound (distilled water containing 0.3% of Tween 80; used as a control) was orally administered (0.1 mL per 10 g of mouse body weight) 30 minutes before the injection of CGS 21680 into the intracerebral ventricle. One hour after the administration of the each test compound, only forelimbs or only hindlimbs of each mouse were laid on a vertically arranged stand made of acryl and having a size of 4.5 cm in height and 1.0 cm in width to measure catalepsy symptoms. All of the test compounds were administered orally in a dose of 10 mg/kg.
# The criteria of the catalepsy score are shown below.
# The effect was decided by a total catalepsy score of 10 mice in one group (the maximum score: 50 points). When the total score was 40 points or less, the activity of the compounds was decided positive. The number of the animals showing remission of catalepsy was expressed by the number of cases showing a catalepsy score of 4 points or less in 10 cases. The catalepsy remission ratio was expressed as the percentage of the total score in the test compound-administered group to the total score in the control group.
# [1] = from total score of test group and control group, 10 mg/kg orally
Structure (SMILES),inhibition in vivo at 10 mg/kg [1] [%],Total score (10 mg/kg orally),inhibition in vivo at 10 mg/kg [%],Number of animals showing remission (10 mg/kg orally),Remission ratio (%) [1] [%]
"COCCN(C)C(=O)c1cc2nc(-c3ccco3)nn2c(N)n1 [Compound 87, 5-Amino-2-(2-furyl)[1,2,4]triazolo[1,5-c]pyrimidine-7-carboxylic acid [N-(2-methoxyethyl)-N-methyl]amide]",82,9,–,–,–
"CCOC1(c2cc3nc(-c4ccco4)nn3c(N)n2)CC1 [Compound 26, 5-Amino-7-(1-ethoxycyclopropyl)-2-(2-furyl)[1,2,4]triazolo [1,5-c]pyrimidine]",82,9,–,–,–
"COc1ccc(CN(C)Cc2cc3nc(-c4ccco4)nn3c(N)n2)cc1OC [Compound 35, 5-Amino-7-[(N-methyl-3,4-dimethoxybenzylamino)methyl]-2-(2-furyl)[1,2,4]triazolo[1,5-c]pyrimidine monohydrochloride]",–,5,90,–,–
"Nc1nc(C(=O)NCc2ccccc2)cc2nc(-c3ccco3)nn12 [Compound 91, 5-Amino-2-(2-furyl)[1,2,4]triazolo[1,5-c]pyrimidine-7-carboxylic acid benzylamide]",94,3,–,–,–
"COC1CCN(C(=O)c2cc3nc(-c4ccco4)nn3c(N)n2)CC1 [Compound 144, 5-Amino-2-(2-furyl)[1,2,4]triazolo[1,5-c]pyrimidin-7-yl 4-methoxypiperidino ketone]",84,7,–,–,–
"CC(C)(O)c1ccc(-c2cc3nc(-c4ccco4)nn3c(N)n2)cc1 [Compound 63, 5-Amino-2-(2-furyl)-7-[4-(1-hydroxy-1-methylethyl)phenyl]-[1,2,4]triazolo[1,5-c]pyrimidine]",98,1,–,–,–
"Nc1nc(C(=O)N2CCC(O)(Cc3ccccc3)CC2)cc2nc(-c3ccco3)nn12 [Compound 162, 5-Amino-2-(2-furyl)[1,2,4]triazolo[1,5-c]pyrimidin-7-yl 4-benzyl-4-hydroxypiperidino ketone]",72,13,–,–,–
"CN(Cc1cccnc1)C(=O)c1cc2nc(-c3ccco3)nn2c(N)n1 [Compound 105, 5-Amino-2-(2-furyl)[1,2,4]triazolo[1,5-c]pyrimidine-7-carboxylic acid [N-methyl-N-(3-pyridylmethyl)]amide]",82,9,–,–,–
"CC(C)N(Cc1ccccc1)C(=O)c1cc2nc(-c3ccco3)nn2c(N)n1 [Compound 100, 5-Amino-2-(2-furyl)[1,2,4]triazolo[1,5-c]pyrimidine-7-carboxylic acid (N-benzyl-N-isopropyl)amide]",–,15,–,8,64
"CN(C(=O)c1cc2nc(-c3ccco3)nn2c(N)n1)c1ccc(Cl)nc1 [Compound 118, 5-Amino-2-(2-furyl)[1,2,4]triazolo[1,5-c]pyrimidine-7-carboxylic acid [N-(6-chloropyridin-3-yl)-N-methyl]amide]",94,3,–,–,–
"COc1ccc(CNC(=O)c2cc3nc(-c4ccco4)nn3c(N)n2)cc1OC [Compound 80, 5-Amino-2-(2-furyl)[1,2,4]triazolo[1,5-c]pyrimidine-7-carboxylic acid (3,4-dimethoxybenzyl)amide]",88,6,–,–,–
"CCN(Cc1cccnc1Cl)C(=O)c1cc2nc(-c3ccco3)nn2c(N)n1 [Compound 129, 5-Amino-2-(2-furyl)[1,2,4]triazolo[1,5-c]pyrimidine-7-carboxylic acid [N-ethyl-N-(2-chloropyridin-3-ylmethyl)]-amide]",90,5,–,–,–
"CN(CCc1cccnc1)C(=O)c1cc2nc(-c3ccco3)nn2c(N)n1 [Compound 138, 5-Amino-2-(2-furyl)[1,2,4]triazolo[1,5-c]pyrimidine-7-carboxylic acid {N-methyl-N-[2-(3-pyridyl)ethyl]}amide]",78,11,–,–,–
"CN(Cc1ccc(F)cc1)C(=O)c1cc2nc(-c3ccco3)nn2c(N)n1 [Compound 121, 5-Amino-2-(2-furyl)[1,2,4]triazolo[1,5-c]pyrimidine-7-carboxylic acid [N-(4-fluorobenzyl)-N-methyl]amide monohydrochloride]",72,14,–,–,–
Nc1nc(C(=O)NCCCN2CCCC2=O)cc2nc(-c3ccco3)nn12 [Compound 92],82,9,–,–,–
"CC(C)(O)c1ccccc1OCc1cc2nc(-c3ccco3)nn2c(N)n1 [Compound 29, 5-Amino-7-[2-(1-hydroxy-1-methylethyl)phenoxymethyl]-2-(2-furyl)[1,2,4]triazolo[1,5-c]pyrimidine]",88,6,–,–,–
"Nc1nc(C(=O)N2CCC(O)(c3ccccc3)CC2)cc2nc(-c3ccco3)nn12 [Compound 150, 5-Amino-2-(2-furyl)[1,2,4]triazolo[1,5-c]pyrimidin-7-yl (4-hydroxy-4-phenyl)piperidino ketone]",–,11,–,8,76
"Nc1nc(C(=O)N2CCC(Cc3ccccc3)CC2)cc2nc(-c3ccco3)nn12 [Compound 158, 5-Amino-2-(2-furyl)[1,2,4]triazolo[1,5-c]pyrimidin-7-yl 4-benzylpiperidino ketone]",–,7,86,–,–
"Nc1nc(-c2ccc(CO)cn2)cc2nc(-c3ccco3)nn12 [Compound 62, 5-Amino-2-(2-furyl)-7-(3-hydroxymethylpyridin-6-yl)[1,2,4]-triazolo[1,5-c]pyrimidine]",80,10,–,–,–
"Nc1nc(-c2ccccn2)cc2nc(-c3ccco3)nn12 [Compound 52, 5-Amino-2-(2-furyl)-7-(2-pyridyl)[1,2,4]triazolo[1,5-c]-pyrimidine]",84,8,–,–,–
"Nc1nc(C2=CCN(CCO)CC2)cc2nc(-c3ccco3)nn12 [Compound 75, 5-Amino-2-(2-furyl)-7-[1-(2-hydroxyethyl)-1,2,3,6-tetra-hydropyridin-4-yl][1,2,4]triazolo[1,5-c]pyrimidine]",–,2,96,–,–
"Nc1nc(C2=CCN(Cc3csnn3)CC2)cc2nc(-c3ccco3)nn12 [Compound 72, 5-Amino-2-(2-furyl)-7-[1-(1,2,3-thiadiazol-4-yl)methyl-1,2,3,6-tetrahydropyridin-4-yl][1,2,4]triazolo[1,5-c]-pyrimidine]",–,0,100,–,–
"Nc1nc(-c2cccnc2)cc2nc(-c3ccco3)nn12 [Compound 53, 5-Amino-2-(2-furyl)-7-(3-pyridyl) [1,2,4]triazolo[1,5-c]-pyrimidine]",84,8,–,–,–
"Nc1nc(CO)cc2nc(-c3ccco3)nn12 [Compound 22, 5-Amino-2-(2-furyl)-7-hydroxymethyl[1,2,4]triazolo[1,5-c]-pyrimidine]",84,8,–,–,–
"Nc1nc(-c2cc[nH]n2)cc2nc(-c3ccco3)nn12 [Compound 60, 5-Amino-2-(2-furyl)-7-(1H-pyrazol-3-yl)[1,2,4]triazolo[1,5-c]pyrimidine]",98,1,–,–,–
"COC[C@H]1CCCN1C(=O)c1cc2nc(-c3ccco3)nn2c(N)n1 [Compound 149, (2R)-(2-Methoxymethyl)pyrrolidinyl 5-amino-2-(2-furyl)-7-[1,2,4]triazolo[1,5-c]pyrimidin-7-yl ketone]",–,15,–,7,70
"Cc1ccc(CN(C)C(=O)c2cc3nc(-c4ccco4)nn3c(N)n2)cn1 [Compound 130, 5-Amino-2-(2-furyl)[1,2,4]triazolo[1,5-c]pyrimidine-7-carboxylic acid [N-methyl-N-(6-methylpyridin-3-ylmethyl)]-amide]",70,15,–,–,–
"CCN(Cc1ccncc1)C(=O)c1cc2nc(-c3ccco3)nn2c(N)n1 [Compound 102, 5-Amino-2-(2-furyl)[1,2,4]triazolo[1,5-c]pyrimidine-7-carboxylic acid [N-ethyl-N-(4-pyridylmethyl)]amide]",92,4,–,–,–
